From patent publication US20230146395A1, “Substituted Pyrimidines and Uses Thereof” (Verge Analytics, Inc., priority 2020, published 2023)
pEC50, pIC50: −log10 of the molar value.

How the values were obtained:
[1] = test system: ALS patient (SOD1 A4V) iPSC derived motor neurons; test: iPSC MN Survival assay (GFP imaging, six days, hazard ratio from Cox regression); type: cell-based; details: Homo sapiens, survival rescue, read-out: C9 iPSC MN Significant survival rescue EC50
[2] = test system: HEK 293T transfected with plasmids containing TDP-43 Q331K mutation; test: HEK/TDP Survival assay (Cell-Titer-Glo, 48 hrs, maximal effect of rescue); type: cell-based; details: Homo sapiens, HEK 293T with TDP-43 Q331K, (n) in brackets
Procedure: HEK/TDP Survival assay: Immortalized human embryonic kidney 293T (HEK 293T) were transfected with plasmids containing TDP-43 Q331K mutation, resulting in an increase in cell death that is biologically relevant to ALS patients. Cell death is measured as reductions in the amount of ATP, an indicator of metabolically active cells, that is quantified by a luminescence Cell-Titer-Glo® (CTG) reagent. Compounds are evaluated in this model for changes in CTG compared to a no treatment group. Increased signal indicates improved survival (rescue) and decreased signal indicates decreased survival.
Cell rescue was measured in a 96-well format with eight different concentrations of the test compound over 48 hours (hrs) with 6 replicates. The Promega Cell-Titer-Glo® Luminescent Cell Viability Assay was used to quantify ATP, an indicator of metabolically active cells (see protocol: https://www.promega.com/-/media/files/resources/protocols/technical-manuals/101/celltiterglo-2-0-assay-protocol.pdf?la=en). The luminescence signal was detected using the PerkinElmer EnVision or Molecular Devices SpectraMax.
The effect of a compound at a given dose on cell viability was determined using a three step procedure. First, Hedge's g for the Cell Titer-Glo luminescence values using six untreated wells on every plate as a control was calculated. […] Finally, values from all compound-dose pairs were corrected for multiple hypothesis testing using the Empirical Bayes framework of Stephens, M. (False discovery rates: a new deal, Biostatistics, 18 [2], 2017, 275-294) yielding credible intervals for the measured effect and associated s values.
Briefly, this method computes a local false sign rate for each experiment. Analogous to the local false discovery rate of Efron, B. (Size, power and false discovery rates, Ann. Statist. 35 [4], 2007, 1351-1377) this value measures the confidence in the sign of each effect (rather than confidence in each effect being non-zero). The s values reported in the previous figures are the expected fraction of errors if estimating the sign of all effects with greater absolute local false sign rate, defined in analogy to the q value of Storey, JD (The positive false discovery rate: a Bayesian interpretation and the q-value, Ann. Statist. 31 [6] 2003, 2013-2035).
Drugs that yielded signed log s values greater than 3 were considered hits. This threshold was determined by a separate calibration experiment in which Cell Titer-Glo® was measured in blank plates consisting of untreated cells to assess the noise inherent in the assay. Data are presented as the maximal effect of rescue obtained from the dose-response curve.

[3] = molecular target: T1, Full length human recombinant PIKFYVE (Homo sapiens, UniProt Q9Y2I7); test: Inhibition of PIKfyve (microfluidic electrophoresis kinase assay, PI3P/PS substrate); type: biochemical; details: 12 concentrations
T1 construct: Full length human recombinant PIKFYVE; purchased Carna Biosciences (Kobe, Japan); host or cells: baculovirus expression system
T1 sequence (Q9Y2I7 whole entry): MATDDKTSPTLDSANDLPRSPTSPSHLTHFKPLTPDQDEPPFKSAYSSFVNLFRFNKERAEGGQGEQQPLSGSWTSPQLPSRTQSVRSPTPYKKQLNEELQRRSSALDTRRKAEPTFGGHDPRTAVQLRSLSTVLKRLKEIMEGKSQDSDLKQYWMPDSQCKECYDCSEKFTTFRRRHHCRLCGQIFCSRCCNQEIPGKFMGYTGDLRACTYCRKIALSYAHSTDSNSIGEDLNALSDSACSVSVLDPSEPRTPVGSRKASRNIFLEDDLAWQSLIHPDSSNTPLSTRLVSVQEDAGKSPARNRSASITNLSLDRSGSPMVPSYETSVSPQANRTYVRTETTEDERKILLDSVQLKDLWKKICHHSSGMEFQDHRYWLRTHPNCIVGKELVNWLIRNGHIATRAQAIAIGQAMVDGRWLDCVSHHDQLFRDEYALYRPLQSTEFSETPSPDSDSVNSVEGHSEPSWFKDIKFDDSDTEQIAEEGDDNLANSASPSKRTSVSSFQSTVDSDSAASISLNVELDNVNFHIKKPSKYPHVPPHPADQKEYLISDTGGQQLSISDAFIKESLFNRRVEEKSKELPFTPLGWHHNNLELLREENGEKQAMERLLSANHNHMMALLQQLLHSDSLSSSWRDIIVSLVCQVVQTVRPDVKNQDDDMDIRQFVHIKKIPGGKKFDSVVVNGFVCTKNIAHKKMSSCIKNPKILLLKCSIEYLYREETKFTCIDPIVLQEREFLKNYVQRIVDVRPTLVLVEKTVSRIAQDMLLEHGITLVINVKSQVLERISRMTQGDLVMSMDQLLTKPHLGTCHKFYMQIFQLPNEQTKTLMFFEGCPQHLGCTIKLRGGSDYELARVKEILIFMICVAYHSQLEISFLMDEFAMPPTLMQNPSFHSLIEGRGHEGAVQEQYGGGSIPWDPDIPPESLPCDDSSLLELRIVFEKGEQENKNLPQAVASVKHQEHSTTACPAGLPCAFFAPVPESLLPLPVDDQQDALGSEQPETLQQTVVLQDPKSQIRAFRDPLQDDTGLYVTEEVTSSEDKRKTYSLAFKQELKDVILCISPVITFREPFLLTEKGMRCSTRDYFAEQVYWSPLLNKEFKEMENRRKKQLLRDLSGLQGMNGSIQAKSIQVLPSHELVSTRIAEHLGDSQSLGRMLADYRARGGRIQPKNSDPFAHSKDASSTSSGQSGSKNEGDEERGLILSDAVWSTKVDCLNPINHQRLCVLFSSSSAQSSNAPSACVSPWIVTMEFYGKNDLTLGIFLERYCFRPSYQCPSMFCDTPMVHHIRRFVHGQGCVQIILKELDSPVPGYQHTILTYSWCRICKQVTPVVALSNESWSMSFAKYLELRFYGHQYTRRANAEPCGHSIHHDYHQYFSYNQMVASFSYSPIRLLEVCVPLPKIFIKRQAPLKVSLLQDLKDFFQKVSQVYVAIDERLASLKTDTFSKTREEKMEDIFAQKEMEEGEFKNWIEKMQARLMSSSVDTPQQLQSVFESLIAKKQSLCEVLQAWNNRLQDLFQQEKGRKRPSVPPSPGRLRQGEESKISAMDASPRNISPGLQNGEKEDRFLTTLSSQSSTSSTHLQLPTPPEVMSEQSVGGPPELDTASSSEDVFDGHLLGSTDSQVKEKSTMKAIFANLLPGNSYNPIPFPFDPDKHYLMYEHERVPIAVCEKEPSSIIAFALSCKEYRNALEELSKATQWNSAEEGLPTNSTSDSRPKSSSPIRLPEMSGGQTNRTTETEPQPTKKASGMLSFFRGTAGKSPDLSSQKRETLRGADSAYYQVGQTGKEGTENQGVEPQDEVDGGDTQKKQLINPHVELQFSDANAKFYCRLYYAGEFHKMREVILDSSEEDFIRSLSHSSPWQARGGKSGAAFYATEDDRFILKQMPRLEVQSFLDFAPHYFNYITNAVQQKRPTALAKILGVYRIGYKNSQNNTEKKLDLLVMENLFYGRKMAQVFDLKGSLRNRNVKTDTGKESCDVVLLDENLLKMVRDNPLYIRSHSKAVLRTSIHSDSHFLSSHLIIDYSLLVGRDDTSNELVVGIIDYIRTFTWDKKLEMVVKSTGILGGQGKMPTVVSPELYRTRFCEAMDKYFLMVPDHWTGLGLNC
Outline: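 GST-tagged full-length human PIKFYVE (baculovirus; 2 nM) with fluorescent PI3P/PS (1 μM PI3P) and […] in pH 7.5 HEPES with Mg2+/Mn2+, 1% DMSO, 3 h at room temperature. PI(3,5)P product/substrate ratio read by microfluidic electrophoresis; 12-point % inhibition versus no-enzyme and DMSO controls.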

Compound	pEC50 [1]	EC50 [2]	pIC50 [3]
Cc1cccc(-c2cc(Nc3nc(N4CCOCC4)c4oc(-c5ccncc5)cc4n3)[nH]n2)c1 [Compound 3, 4-morpholino-N-[5-(m-tolyl)-1H-pyrazol-3-yl]-6-(4-pyridyl)furo[3,2-d]pyrimidin-2-amine, hydrogen chloride]	5.52	16 nM	9.10
CCNC(=O)c1cc2nc(Nc3cc(-c4ccccc4)[nH]n3)nc(N3CCOCC3)c2o1 [Compound 56, N-ethyl-4 morpholino-2-[(5-phenyl-1H-pyrazol-3-yl)amino]furo[3,2-d]pyrimidine-6-carboxamide, hydrogen chloride]	6.00	15 nM	8.70
Cc1cccc(-c2ccn(-c3nc(N4CCOCC4)c4oc(-c5ccccn5)cc4n3)n2)c1 [Compound 91, 4-morpholino-6-(pyridin-2-yl)-2-(3-(m-tolyl)-1H-pyrazol-1-yl)furo[3,2-d]pyrimidine]	6.00	24.5 nM	8.41
Cc1cccc(-c2cnn(-c3nc(N4CCOCC4)c4oc(C(=O)NC5CC5)cc4n3)c2)c1 [Compound 100, N-cyclopropyl-4-morpholino-2-(4-(m-tolyl)-1H-pyrazol-1-yl)furo[3,2-d]pyrimidine-6-carboxamide]	6.52	18 nM	8.92
CCNC(=O)c1cc2nc(-n3cc(-c4cccc(C)c4)cn3)nc(N3CCOCC3)c2o1 [Compound 101, N-ethyl-4-morpholino-2-(4-(m-tolyl)-1H-pyrazol-1-yl)furo[3,2-d]pyrimidine-6-carboxamide]	6.00	–	8.54
Cc1cccc(-c2cnn(-c3nc(N4CCOCC4)c4oc(-c5cccnc5)cc4n3)c2)c1 [Compound 102, 4-morpholino-6-(pyridin-3-yl)-2-(4-(m-tolyl)-1H-pyrazol-1-yl)furo[3,2-d]pyrimidine]	6.00	43 nM	7.92
Cc1cccc(-c2cnn(-c3nc(N4CCOCC4)c4oc(-c5ccccn5)cc4n3)c2)c1 [Compound 103, 4-morpholino-6-(pyridin-2-yl)-2-(4-(m-tolyl)-1H-pyrazol-1-yl)fur[3,2-d]pyrimidine]	6.00	–	7.95
Cc1cccc(-c2cnn(-c3nc(N4CCOCC4)c4oc(C(=O)NC5COC5)cc4n3)c2)c1 [Compound 106, 4-morpholino-N-(oxetan-3-yl)-2-(4-(m-tolyl)-1H-pyrazol-1-yl)furo[3,2-d]pyrimidine-6-carboxamide]	6.00	53.5 nM	7.99
Cc1cccc(-c2cnn(-c3nc(N4CCOCC4)c4oc(C(=O)NCC5COC5)cc4n3)c2)c1 [Compound 107, 4-morpholino-N-(oxetan-3-ylmethyl)-2-(4-(m-tolyl)-1H-pyrazol-1-yl)furo[3,2-d]pyrimidine-6-carboxamide]	6.00	59.5 nM	8.72
Cc1cccc(-c2cnn(-c3nc(N4CCOCC4)c4oc(C(=O)NC5CCCN(C)C5)cc4n3)c2)c1 (centres unmarked) [Compound 123, N-(1-methylpiperidin-3-yl)-4-morpholino-2-(4-(m-tolyl)-1H-pyrazol-1-yl)furo[3,2-d]pyrimidine-6-carboxamide]	–	28.5 nM	8.48
Cc1cccc(-c2cnn(-c3nc(N4CCOCC4)c4oc(C(=O)NC5CCN(C)C5)cc4n3)c2)c1 (centres unmarked) [Compound 124, N-(1-methylpyrrolidin-3-yl)-4-morpholino-2-(4-(m-tolyl)-1H-pyrazol-1-yl)furo[3,2-d]pyrimidine-6-carboxamide]	–	48 nM	8.33
Cc1cccc(-c2cnn(-c3nc(N4CCOCC4)c4oc(C(=O)NC5CCOCC5)cc4n3)c2)c1 [Compound 125, 4-morpholino-N-(tetrahydro-2H-pyran-4-yl)-2-(4-(m-tolyl)-1H-pyrazol-1-yl)furo[3,2-d]pyrimidine-6-carboxamide]	–	26 nM	9.05
Cc1cccc(-c2cnn(-c3nc(N4CCOCC4)c4oc(C(=O)NC5CCOC5)cc4n3)c2)c1 (centres unmarked) [Compound 126, 4-morpholino-N-(tetrahydrofuran-3-yl)-2-(4-(m-tolyl)-1H-pyrazol-1-yl)furo[3,2-d]pyrimidine-6-carboxamide]	–	30.5 nM	8.54
Cc1cccc(-c2cnn(-c3nc(N4CCOCC4)c4oc(C(=O)NC5CC5)c(C)c4n3)c2)c1 [Compound 127, N-cyclopropyl-7-methyl-4-morpholino-2-(4-(m-tolyl)-1H-pyrazol-1-yl)furo[3,2-d]pyrimidine-6-carboxamide]	–	48 nM	7.47
Cc1cccc(-c2cnn(-c3nc(N4CCOCC4)c4oc(C(=O)NC5CCCN(C)CC5)cc4n3)c2)c1 (centres unmarked) [Compound 129, N-(1-methylazepan-4-yl)-4-morpholino-2-(4-(m-tolyl)-1H-pyrazol-1-yl)furo[3,2-d]pyrimidine-6-carboxamide]	–	9 nM	7.93
[2H]C1([2H])OC([2H])([2H])C([2H])([2H])N(c2nc(-n3cc(-c4cccc(C)c4)cn3)nc3cc(C(=O)NCC)oc23)C1([2H])[2H] [Compound 131, N-ethyl-4-morpholino(dg)-2-(4-(m-tolyl)-1H-pyrazol-1-yl)furo[3,2-d]pyrimidine-6-carboxamide]	–	17 nM	7.74
[2H]C1([2H])OC([2H])([2H])C([2H])([2H])N(c2nc(-n3cc(-c4cccc(C)c4)cn3)nc3cc(-c4cccnc4)oc23)C1([2H])[2H] [Compound 132, 4-morpholino (dg)-6-(pyridin-3-yl)-2-(4-(m-tolyl)-1H-pyrazol-1-yl)furo[3,2-d]pyrimidine]	–	15 nM	7.40
Cc1cccc(-c2cnn(-c3nc(N4CCOCC4)c4oc(-c5ccncn5)cc4n3)c2)c1 [Compound 143, 4-morpholino-6-(pyrimidin-4-yl)-2-(4-(m-tolyl)-1H-pyrazol-1-yl)furo[3,2-d]pyrimidine]	6.00	48 nM	7.60
Cc1cccc(-c2cnn(-c3nc(N4CCOCC4)c4oc(-c5cc(C)n[nH]5)cc4n3)c2)c1 [Compound 144, 6-(3-methyl-1H-pyrazol-5-yl)-4-morpholino-2-(4-(m-tolyl)-1H-pyrazol-1-yl)furo[3,2-d]pyrimidine]	–	13 nM	9.52
Cc1cccc(-c2cnn(-c3nc(N4CCOCC4)c4oc(-c5cc(C)nn5CCN(C)C)cc4n3)c2)c1 [Compound 145, N,N-dimethyl-2-[3-methyl-5-[4-morpholino-2-[4-(m-tolyl)pyrazol-1-yl]furo[3,2-d]pyrimidin-6-yl]pyrazol-1-yl]ethanamine]	–	27 nM	7.73
Cc1cccc(-c2cnn(-c3nc(N4CCOCC4)c4oc(-c5cc(C)n(CCN(C)C)n5)cc4n3)c2)c1 [Compound 146, N,N-dimethyl-2-(5-methyl-3-(4-morpholino-2-(4-(m-tolyl)-1H-pyrazol-1-yl)furo[3,2-d]pyrimidin-6-yl)-1H-pyrazol-1-yl)ethanamine]	–	11 nM	9.52
